# Data reported in US12227500B2, “Substituted pyrrolo[2,3-b]pyridines for suppressing toxic endoplasmic reticulum stress” (THE TRUSTEES OF COLUMBIA UNIVERSITY IN THE CITY OF NEW YORK, priority 2018, dated 2025).
# “And” between values parts separate entries of the source, which are not always exact repeats. Identical values can stand only once. Like-named read-outs stand apart in the source and are kept apart here.
# Assays:
# [1] = tested on: human ES motor neurons; assay: Rescue of CPA toxicity by kinase inhibitors in dilution series (FIG. 3); details: for rescue of CPA toxicity: dilution series, FIG. 3
# [2] = tested on: human ES motor neurons carrying the ALS-causing SOD1^A4V mutation; assay: cells; format: cell-based; details: for EC50 / Emax / viability at 1 µM: Homo sapiens, Neuron, 72 h; for EC50: read-out: EC50; for Emax: read-out: Emax (MN survival % untreated); for viability at 1 µM: CPA (33 μM) + compound (1 μM), read-out: Motor Neuron Survival, % untreated
# Procedure: Next, survival assays were performed with all the analogs at once to generate a low-variability dataset. All compounds were evaluated at concentrations ranging from 0.1-3.0 μM (five-point dilution) in three technical replicates and two biological replicates.
# [3] = Plasma and brain concentration 30 min after IP injection; format: in vivo, mouse; details: mice, ip dosing; for Kp at 30 min / concentration at 30 min: male, C57BL6/J, mouse; for Kp at 30 min: brain/plasma, read-out: B/P
# Procedure: All studies were performed on 6-week old male C57BL6/J mice that were housed in the Columbia University Medical Center facility in a 12h light/dark cycle with access to food and water ad libitum. All animal procedures were approved by the Columbia University IACUC. […] Animals were weighed and injected once intraperitoneally (IP) at the indicated dose (10 or 20 mg/kg). After 30 min, animals were deeply anesthetized with 2.5% Avertin. Whole blood was collected by cardiac puncture in tubes containing 0.5M EDTA as an anticoagulant, and centrifuged for 10 min at 845 rcf at 4° to isolate plasma. Following cardiac puncture, animals were decapitated and brains were dissected and weighed. Brain samples were homogenized with a glass dounce homogenizer in 5 volumes of ddH2O. Brain and plasma samples were snap frozen in liquid nitrogen and stored at −80° C. before further processing.
# The plasma samples were transferred to Eppendorf tubes (50 μL per sample) and diluted with acetonitrile (200 μL). The samples were sonicated for 1 minute followed by centrifugation at 16,000 rpm for 10 minutes. The supernatant was transferred to another Eppendorf tube and the solvent evaporated overnight. The samples were reconstituted in a mixture of 40 μL acetonitrile and 10 μL water transferred to a sample vial with insert, and analyzed by LC-MS.
# The homogenized brain samples (250 μL) were transferred to Eppendorf tubes and diluted with acetonitrile (750 μL). The samples were sonicated for 1 minute followed by centrifugation at 16,000 rpm for 10 minutes. The supernatant (900 μL) was transferred to another Eppendorf tube and the solvent evaporated overnight. The samples were reconstituted in a mixture of 80 μL acetonitrile and 20 μL water, transferred to a sample vial with insert, and analyzed by LC-MS.
# LC-MS analysis was performed on a platform comprising a Thermo Scientific Dionex Ultimate 3000 and a Bruker amaZon SL equipped with an electrospray ionization source controlled by Bruker Hystar 3.2. The compound concentration in each plasma sample was determined using a calibration curve. Chromatographic separation was performed by injecting 10 μL of the sample onto an Agilent Eclipse Plus C18 column (2.1×50 mm, 3.5 μm) maintained at 20° C. The flow rate was maintained at 400 μL/min. The initial flow conditions were 60% solvent A (water containing 0.1% acetic acid) and 40% solvent B (methanol containing 0.1% acetic acid). Solvent B was raised to 60% over 0.25 minutes and to 70% by 6.75 minutes.
# [4] = in vitro; details: CD-1, mouse, liver microsomes, pH 7.4
# [5] = target: HGK/MAP4K4 (Homo sapiens, UniProt O95819); assay: Radiolabeled ATP kinase assay (Reaction Biology Corp.), HGK; format: biochemical; parameters: purchased Reaction Biology Corp; details: 10 μM ATP, read-out: % Enzyme Activity (relative to DMSO controls), HGK/MAP4K4, Data 1; for remaining activity at 0.025 µM: [Cmpd] 0.025 μM; for remaining activity at 0.1 µM: [Cmpd] 0.1 μM
# Procedure: (§1) Meanwhile, the same analogs were analyzed in a radiolabeled ATP assay (10 μM ATP; Reaction Biology Corp.) to compare the extent to which they could inhibit the activity of HGK, MLK1, or MLK3 in a cell-free environment (Table S3 and S4).
# [6] = target: T1, MLK1/MAP3K9 (Homo sapiens, UniProt P80192); assay: Radiolabeled ATP kinase assay (Reaction Biology Corp.), MLK1; format: biochemical; details: [Cmpd] 0.1 μM, 10 μM ATP
# T1 construct: purchased Reaction Biology Corp
# Procedure: as §1
# [7] = target: T2, MLK3/MAP3K11 (Homo sapiens, UniProt Q16584); assay: Radiolabeled ATP kinase assay (Reaction Biology Corp.), MLK3; format: biochemical; details: [Cmpd] 0.1 μM; 10 μM ATP
# T2 construct: purchased Reaction Biology Corp
# Procedure: as §1
# [8] = tested on: ESC-derived spinal motor neurons and interneurons; assay: Toxicity of ER stressors in mouse ESC-derived spinal neuron cultures; format: cell-based; details: co-cultures, increasing concentrations
# Text: One of the selective stressors that we identified was cyclopiazonic acid (CPA), a mycotoxin that reversibly blocks the sarcoendoplasmic reticulum-associated calcium ATPse (SERCA). SERCA is responsible for sequestering calcium from the cytoplasm into the endoplasmic reticulum (ER) (Goeger et al. 1988). SERCA inhibition lowers calcium concentration in the ER, leading to dysfunction of protein folding, activation of the unfolded protein response, ER stress, and apoptosis (Doutheil et al. 1997). […]. For all subsequent experiments, unless stated otherwise, motor neurons were treated with 7.5 μM CPA.
# […]. […] […].
# For this analysis, we generated a new ESC line that expresses tdTomato in dI4 and dIL dorsal spinal inhibitory interneurons derived from Ptf1α-expressing progenitors (Hoang et al. 2017, unpublished data). We differentiated this line under conditions that promote the specification of dorsal interneuron identity. FACS-purified tdTomato-expressing interneurons were co-cultured with FACS-purified GFP-expressing spinal motor neurons (FIG. 16E and FIG. 16G).
# To strengthen the link between the activation of ER stress and motor neuron degeneration, we extended our study to include two additional compounds that activate ER stress: thapsigargin, a drug that acts similarly to CPA by inhibiting SERCA pumps, but is irreversible (Lytton et al. 1991), and tunicamycin, a drug that triggers ER stress in a calcium-independent manner by inhibiting protein N-glycosylation in the ER (Oslowski et al. 2011). […] Thus, the motor neuron-toxic effects of CPA are likely related to its activation of ER stress pathways and not to its effects on calcium levels or other off-target effects (FIG. 16G).
# [9] = tested on: HB9::GFP-SOD1^+/A4V human motor neurons; assay: Rescue of CPA toxicity in human ESC-derived motor neurons, SOD1^+/A4V; format: cell-based
# Text: (§2) One advantage of the stem cell-derived motor neuron survival assay is that it can be easily extended to human motor neurons. To adapt the assay to human cells, we generated a new isogenic pair of ESC lines derived from a human ESC line expressing GFP under the control of the Hb9 motor neuron promoter (HUES3 HB9::GFP, (Di Giorgio et al. 2008)). […] . The pair of cell lines was differentiated into motor neurons in parallel using previously published protocols (Amoroso et al. 2013; […] .
# (§3) Differentiation of human isogenic HUES3 ESC HB9::GFP reporter lines into motor neurons was performed as previously described (Maury et al. 2015). Cells were dissociated on day 16 of differentiation, FACS-sorted and plated on poly-ornithine- and laminin-coated surfaces as above. Serum-free human motor neuron plating media was supplemented with the antimitotic UFdU and the neurotrophic factors GDNF, BDNF, CNTF, and IGF1 (all at 10 ng/mL) as described (Johnson-Kerner et al. 2015).
# [10] = tested on: HB9::GFP-SOD1^+/+ human motor neurons; assay: Rescue of CPA toxicity in human ESC-derived motor neurons, SOD1^+/+; format: cell-based; details: WT motor neurons, 33 μM CPA
# Text: as §2, §3
# [11] = tested on: human stem cell-derived motor neurons derived from a healthy patient; assay: CPA survival assay, wild-type human stem cell-derived motor neurons; details: 8-point dilution series
# [12] = read-out: % Enzyme Activity Remaining (relative to DMSO controls), MLK1/MAP3K9, Data 1
# [13] = read-out: % Enzyme Activity Remaining (relative to DMSO controls), MLK1/MAP3K9, Data 2
# T2 sequence (Q16584 whole entry): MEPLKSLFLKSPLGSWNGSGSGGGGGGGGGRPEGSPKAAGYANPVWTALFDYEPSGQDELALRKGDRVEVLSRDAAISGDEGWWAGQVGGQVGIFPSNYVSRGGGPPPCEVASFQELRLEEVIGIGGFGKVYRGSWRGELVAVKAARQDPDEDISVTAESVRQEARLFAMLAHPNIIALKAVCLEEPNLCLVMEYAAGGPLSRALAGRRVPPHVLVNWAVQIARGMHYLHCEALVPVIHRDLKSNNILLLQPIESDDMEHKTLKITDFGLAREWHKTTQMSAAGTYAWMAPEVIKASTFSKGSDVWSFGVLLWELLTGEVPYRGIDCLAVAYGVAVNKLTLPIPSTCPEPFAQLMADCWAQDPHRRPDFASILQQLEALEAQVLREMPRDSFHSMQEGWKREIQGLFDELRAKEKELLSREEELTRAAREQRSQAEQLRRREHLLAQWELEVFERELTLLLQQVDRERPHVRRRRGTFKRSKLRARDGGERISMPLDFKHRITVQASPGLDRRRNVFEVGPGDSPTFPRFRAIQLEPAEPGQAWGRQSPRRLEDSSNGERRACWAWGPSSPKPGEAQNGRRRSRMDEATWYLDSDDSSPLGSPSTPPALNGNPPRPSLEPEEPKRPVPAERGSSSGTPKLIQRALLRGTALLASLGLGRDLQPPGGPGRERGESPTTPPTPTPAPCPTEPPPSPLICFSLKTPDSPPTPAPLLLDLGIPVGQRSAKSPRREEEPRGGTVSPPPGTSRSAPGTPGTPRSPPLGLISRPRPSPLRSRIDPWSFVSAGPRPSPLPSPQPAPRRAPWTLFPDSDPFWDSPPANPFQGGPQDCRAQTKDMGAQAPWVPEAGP
# Sequence of HGK/MAP4K4 (O95819 whole entry): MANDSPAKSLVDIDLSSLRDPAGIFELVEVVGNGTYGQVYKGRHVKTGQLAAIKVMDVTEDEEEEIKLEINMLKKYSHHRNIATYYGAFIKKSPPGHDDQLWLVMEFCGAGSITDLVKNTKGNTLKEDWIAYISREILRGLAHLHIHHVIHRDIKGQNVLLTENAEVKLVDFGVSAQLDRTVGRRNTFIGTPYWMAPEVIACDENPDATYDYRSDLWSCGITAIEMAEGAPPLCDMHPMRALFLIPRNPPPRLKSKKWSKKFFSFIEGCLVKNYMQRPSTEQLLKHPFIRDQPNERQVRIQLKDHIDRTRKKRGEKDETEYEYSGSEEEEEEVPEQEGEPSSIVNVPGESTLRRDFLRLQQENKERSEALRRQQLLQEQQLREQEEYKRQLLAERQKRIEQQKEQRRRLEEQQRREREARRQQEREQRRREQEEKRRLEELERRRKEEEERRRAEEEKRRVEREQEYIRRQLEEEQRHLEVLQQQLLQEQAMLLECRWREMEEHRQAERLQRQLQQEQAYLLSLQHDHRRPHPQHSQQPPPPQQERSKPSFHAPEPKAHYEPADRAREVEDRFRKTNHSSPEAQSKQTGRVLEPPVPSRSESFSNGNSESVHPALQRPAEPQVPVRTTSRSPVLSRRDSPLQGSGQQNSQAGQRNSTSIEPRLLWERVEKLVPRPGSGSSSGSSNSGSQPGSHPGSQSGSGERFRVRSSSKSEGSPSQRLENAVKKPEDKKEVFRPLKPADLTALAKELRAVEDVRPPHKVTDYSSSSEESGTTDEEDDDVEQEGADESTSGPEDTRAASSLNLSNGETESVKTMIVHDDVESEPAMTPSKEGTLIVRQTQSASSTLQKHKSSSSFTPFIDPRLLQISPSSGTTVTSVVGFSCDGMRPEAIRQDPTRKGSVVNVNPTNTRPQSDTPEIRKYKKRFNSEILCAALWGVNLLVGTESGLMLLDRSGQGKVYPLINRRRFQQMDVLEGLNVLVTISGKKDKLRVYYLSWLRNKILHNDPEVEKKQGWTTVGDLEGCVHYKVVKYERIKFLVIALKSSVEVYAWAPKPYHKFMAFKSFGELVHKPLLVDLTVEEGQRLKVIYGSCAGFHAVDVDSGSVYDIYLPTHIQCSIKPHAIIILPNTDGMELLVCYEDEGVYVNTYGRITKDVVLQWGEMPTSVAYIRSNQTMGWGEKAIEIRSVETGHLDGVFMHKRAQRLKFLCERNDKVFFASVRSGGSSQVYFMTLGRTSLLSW
# T1 sequence (P80192 whole entry): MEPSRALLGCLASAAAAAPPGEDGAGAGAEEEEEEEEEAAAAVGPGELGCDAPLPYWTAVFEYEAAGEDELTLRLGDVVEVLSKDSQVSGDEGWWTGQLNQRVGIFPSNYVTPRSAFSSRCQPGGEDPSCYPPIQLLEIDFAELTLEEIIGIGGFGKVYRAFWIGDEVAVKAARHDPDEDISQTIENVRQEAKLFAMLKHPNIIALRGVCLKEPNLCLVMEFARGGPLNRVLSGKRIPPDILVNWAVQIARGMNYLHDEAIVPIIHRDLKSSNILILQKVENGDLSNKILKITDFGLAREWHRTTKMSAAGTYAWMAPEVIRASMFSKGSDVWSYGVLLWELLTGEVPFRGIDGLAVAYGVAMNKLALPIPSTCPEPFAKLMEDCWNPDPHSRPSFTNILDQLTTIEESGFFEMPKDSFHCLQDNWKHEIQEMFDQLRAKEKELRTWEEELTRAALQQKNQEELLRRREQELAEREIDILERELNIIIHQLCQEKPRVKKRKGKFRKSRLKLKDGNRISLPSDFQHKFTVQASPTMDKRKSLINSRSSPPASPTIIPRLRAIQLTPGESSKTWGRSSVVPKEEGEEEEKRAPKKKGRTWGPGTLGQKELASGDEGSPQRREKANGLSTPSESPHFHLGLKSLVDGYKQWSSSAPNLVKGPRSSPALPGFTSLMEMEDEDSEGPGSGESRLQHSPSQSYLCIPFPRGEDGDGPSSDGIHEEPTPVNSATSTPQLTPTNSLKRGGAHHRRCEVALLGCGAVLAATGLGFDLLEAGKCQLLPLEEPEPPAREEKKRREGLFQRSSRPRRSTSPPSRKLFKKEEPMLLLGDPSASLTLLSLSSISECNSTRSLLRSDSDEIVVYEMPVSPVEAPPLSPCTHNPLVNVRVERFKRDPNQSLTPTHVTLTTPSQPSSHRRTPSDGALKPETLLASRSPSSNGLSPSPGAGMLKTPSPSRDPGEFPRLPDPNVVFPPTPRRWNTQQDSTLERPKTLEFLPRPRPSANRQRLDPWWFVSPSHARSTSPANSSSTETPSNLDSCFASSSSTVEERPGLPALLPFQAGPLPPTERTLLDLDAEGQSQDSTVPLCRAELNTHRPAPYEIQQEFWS
compound,measurement,setting,value
CCSCc1ccc2c(c1)c1c3c(c4c5cc(CSCC)ccc5n5c4c1n2[C@H]1C[C@](O)(C(=O)OC)[C@]5(C)O1)CNC3=O [CEP1347],rescue of CPA toxicity,[1],dose-dependent rescue of CPA toxicity
CCN(CC)C(=O)c1ccc(Nc2nc(OCC3CCCCC3)c3[nH]cnc3n2)cc1 [NU6140],rescue of CPA toxicity,[1],dose-dependent rescue of CPA toxicity
"O[C@@H]1CCN(Cc2ccc(-c3cnc4[nH]cc(-c5cccc(Cl)c5)c4c3)cc2)C1 [Compound 12l, (R)-1-(4-(3-(3-Chlorophenyl)-1H-pyrrolo[2,3-b]pyridin-5-yl)benzyl)pyrrolidin-3-ol]",EC50,[2]; CPA 33 μM,90 nM
same,Emax,[2]; CPA 33 μM,115%
same,Kp at 30 min,[3]; 10 mg/kg,1.7
same,concentration at 30 min,"[3]; 10 mg/kg, read-out: brain",< 1000 ng/g and > 2.48 µM
same,concentration at 30 min,"[3]; 10 mg/kg, read-out: plasma",< 600 ng/mL and < 1.49 µM
same,toxicity at this concentration,[3]; 20 mg/kg,^cCompound was toxic at this concentration
JAK3 inhibitor IV,rescue of CPA toxicity,[1],dose-dependent rescue of CPA toxicity
"CN1CCN(Cc2ccc(-c3cnc4[nH]cc(-c5cccc6[nH]ncc56)c4c3)cc2)CC1 [Compound 7aa, 4-(5-(4-((4-Methylpiperazin-1-yl)methyl)phenyl)-1H-pyrrolo[2,3-b]pyridin-3-yl)-1H-indazole]",half-life at 20 μM,[4],9 min
same,remaining activity at 0.025 µM,[5],2.75%
same,remaining activity at 0.1 µM,[5],-1.36%
same,EC50,[2]; CPA 33 μM,208 nM
same,viability at 1 µM,[2],112%
same,Emax,[2]; CPA 33 μM,134%
same,remaining activity at 0.1 µM,[6]; [12],52.9%
same,remaining activity at 0.1 µM,[6]; [13],51.7%
same,"% Enzyme Activity Remaining (relative to DMSO controls), MLK3/MAP3K11, Data 1",[7],31.88%
same,"% Enzyme Activity Remaining (relative to DMSO controls), MLK3/MAP3K11, Data 2",[7],31.78%
"CN1CC2CCC(C1)N2Cc1ccc(-c2cnc3[nH]cc(-c4cccc(Cl)c4)c3c2)cc1 [Compound 12f, 3-(3-Chlorophenyl)-5-(4-((3-methyl-3,8-diazabicyclo[3.2.1]octan-8-yl)methyl)phenyl)-1H-pyrrolo[2,3-b]pyridine]",half-life at 20 μM,[4],158 min
same,concentration giving complete rescue from CPA,[2]; CPA 33 μM,0.3 µM
same,EC50,[2]; CPA 33 μM,110 nM
same,Emax,[2]; CPA 33 μM,116%
C/C=C(/C)C(=O)O[C@H]1C(C)=C2[C@H]([C@@H]1OC(=O)CCCCCCC)[C@@](C)(OC(C)=O)C[C@H](OC(=O)CCC)[C@@]1(O)[C@H]2OC(=O)[C@@]1(C)O [thapsigargin],sensitivity of spinal motor neurons vs dorsal interneurons,[8],selectively sensitive
tunicamycin,sensitivity of spinal motor neurons vs dorsal interneurons,[8],selectively sensitive
COC(=O)[C@@]1(O)C[C@H]2O[C@]1(C)n1c3ccccc3c3c4c(c5c6ccccc6n2c5c31)C(=O)NC4 [Compound K-252a],rescue of CPA-induced cell death,[9],100%
same,rescue of CPA-induced cell death,[10],56%
Cn1cc(/C=C2\C(=O)Nc3ccc(S(N)(=O)=O)cc32)c2ccccc21 [Syk inhibitor],rescue of CPA toxicity,[1],dose-dependent rescue of CPA toxicity
CCC(=O)Nc1cccc(Oc2nc(Nc3ccc(N4CCN(C)CC4)cc3OC)ncc2Cl)c1 [WZ4003],rescue of CPA toxicity,[11],unable to rescue CPA toxicity
same,concentration that potentiated CPA-induced neurodegeneration and was toxic without CPA,[1],≥ 1000 nM
same,rescue of CPA toxicity,[1],unable to rescue CPA toxicity
Cn1c2ccccc2c2c3c(c4c5ccccc5n(CCC#N)c4c21)CNC3=O [Go 6976],rescue of CPA-induced cell death,"[9]; SOD1^A4V motor neurons, 33 μM CPA",34%
same,rescue of CPA-induced cell death,[10],45%
"O[C@@H]1CCN(Cc2ccc(-c3cnc4[nH]cc(-c5cccc(F)c5)c4c3)cc2)C1 [Compound 12i, (R)-1-(4-(3-(3-Fluorophenyl)-1H-pyrrolo[2,3-b]pyridin-5-yl)benzyl)pyrrolidin-3-ol]",EC50,[2]; CPA 33 μM,50 nM
same,Emax,[2]; CPA 33 μM,115%
same,Kp at 30 min,[3]; 10 mg/kg,3.7
same,Kp at 30 min,[3]; 20 mg/kg,2.8
same,concentration at 30 min,"[3]; 10 mg/kg, read-out: brain",2240 ng/g and 5.78 µM
same,concentration at 30 min,"[3]; 10 mg/kg, read-out: plasma",< 600 ng/mL and < 1.55 µM
same,concentration at 30 min,"[3]; 20 mg/kg, read-out: brain",9780 ng/g and 25.2 µM
same,concentration at 30 min,"[3]; 20 mg/kg, read-out: plasma",3490 ng/mL and 9 µM
"CN1CCN(Cc2ccc(-c3cnc4[nH]cc(-c5cccc(F)c5)c4c3)cc2)CC1 [Compound 7y, 3-(3-Fluorophenyl)-5-(4-((4-methylpiperazin-1-yl)methyl)phenyl)-1H-pyrrolo[2,3-b]pyridine]",half-life at 20 μM,[4],> 30 min
same,remaining activity at 0.025 µM,[5],7.85%
same,remaining activity at 0.1 µM,[5],1.53%
same,EC50,[2]; CPA 33 μM,433 nM
same,viability at 1 µM,[2],86.4%
same,Emax,[2]; CPA 33 μM,104%
same,remaining activity at 0.1 µM,[6]; [12],57.1%
same,remaining activity at 0.1 µM,[6]; [13],58.1%
same,"% Enzyme Activity Remaining (relative to DMSO controls), MLK3/MAP3K11, Data 1",[7],40.75%
same,"% Enzyme Activity Remaining (relative to DMSO controls), MLK3/MAP3K11, Data 2",[7],43.09%
